In ChEMBL document CHEMBL6087458, “The Discovery of a Novel AXL/Triple Angiokinase Inhibitor Based on 6-Chloro-Substituted Indolinone and Side Chain Methyl Substitution Inhibiting Pancreatic Cancer Growth and Metastasis” (J Med Chem, 2025):
The source made the active and inactive calls. The calls are words filed in the database; no cut-off is given here.

Assays:
[1] = Cytotoxicity against mouse NIH/3T3 cells assessed as cell viability incubated for 72 hrs by MTT assay; assay type: toxicity, cell-based, NIH3T3
[2] = molecular target: Serine/threonine-protein kinase SIK2 (Homo sapiens) (UniProt Q9H0K1); test: Inhibition of QIK (unknown origin) by envision reader analysis
[3] = molecular target: Tyrosine-protein kinase ABL1 (Homo sapiens) (UniProt P00519); test: Inhibition of ABL1 (unknown origin) by envision reader analysis
Homo sapiens = organism: Homo sapiens; test: Inhibition of PDGFR (unknown origin) by envision reader analysis
[4] = Antiproliferative activity against mouse NIH/3T3 cells cultured as 3D tumor spheroids assessed as cell viability incubated for 72 hrs by CCK-8 assay; assay type: toxicity, cell-based, NIH3T3
HUVEC [5] = test: Anti-angiogenesis activity in HUVEC assessed as reduction in tube formation at 0.5 to 2 uM incubated for 24 hrs by Calcein AM staining based light microscopic analysis; assay type: functional, cell-based; conditions: Homo sapiens, dose 0.5-2 µM
HUVEC [6] = test: Effect on VEGFR expression in HUVEC cells at 0.5 to 2 uM incubated for 24 to 72 hrs by immunofluorescence assay; assay type: functional, cell-based; conditions: Homo sapiens, dose 0.5-2 µM, time 24-72 hrs
NIH3T3 = test: Antiproliferative activity against mouse NIH/3T3 cells cultured as 3D tumor spheroids assessed as reduction in pseudopodia on cell surface; assay type: functional, cell-based
Mitochondrial membrane [7] = test: Induction of mitochondrial membrane potential in mouse NIH/3T3 cells assessed as decrease in red fluorescence intensity incubated for 48 hrs by JC-1 staining based flow cytometry; assay type: cell membranes
Mitochondrial membrane [8] = test: Induction of mitochondrial membrane potential in mouse NIH/3T3 cells assessed as increase in green fluorescence intensity incubated for 48 hrs by JC-1 staining based flow cytometry; assay type: cell membranes
MDA-MB-231 [9] = test: Inhibition of colony formation in human MDA-MB-231 cells at 0.5 uM incubated for 72 hrs; assay type: functional, cell-based
BXPC-3 [10] = test: Inhibition of colony formation in human BXPC-3 cells at 0.5 uM incubated for 72 hrs; assay type: functional, cell-based
MDA-MB-231 [11] = test: Down regulation of Ki67 expression in human MDA-MB-231 cells by immunofluorescence assay; assay type: functional, cell-based
BXPC-3 [12] = test: Effect on STAT3 level in human BXPC-3 cells incubated for 24 to 72 hrs by Western blot analysis; assay type: functional, cell-based; conditions: time 24-72 hrs
[13] = molecular target: Signal transducer and activator of transcription 3 (Homo sapiens) (UniProt P40763); test: Inhibition of STAT3 phosphorylation in human MDA-MB-231 cells incubated for 24 to 72 hrs by Western blot analysis; assay type: cell-based; conditions: dose <= 5.0 µM, time 24-72 hrs
MDA-MB-231 [14] = test: Induction of apoptosis in human MDA-MB-231 cells by annexin V-FITC/propidium iodide staining-based flow cytometry analysis; assay type: functional, cell-based
Mitochondrial membrane [15] = test: Induction of mitochondrial membrane potential depolarization in human MDA-MB-231 cells at 0.2 to 0.5 uM incubated for 24 hrs by JC-1 staining based flow cytometry analysis; assay type: cell membranes; conditions: dose 0.2-0.5 µM
Mitochondrial membrane [16] = test: Induction of mitochondrial membrane potential depolarization in human BXPC-3 cells at 0.2 to 0.5 uM incubated for 24 hrs by JC-1 staining based flow cytometry analysis; assay type: cell membranes; conditions: dose 0.2-0.5 µM
MDA-MB-231 [17] = test: Induction of apoptosis in human MDA-MB-231 cells assessed as increase in BAX expression at 0.1 to 1 uM incubated for 24 hrs by Western blot analysis; assay type: functional, cell-based; conditions: dose 0.1-1 µM
BXPC-3 [18] = test: Induction of apoptosis in human BXPC-3 cells assessed as decrease in Bcl-2 expression at 0.1 to 1 uM incubated for 24 hrs by Western blot analysis; assay type: functional, cell-based; conditions: dose 0.1-1 µM
MDA-MB-231 [19] = test: Induction of apoptosis in human MDA-MB-231 cells assessed as decrease in Bcl-2 expression at 0.1 to 1 uM incubated for 24 hrs by Western blot analysis; assay type: functional, cell-based; conditions: dose 0.1-1 µM
MDA-MB-231 [20] = test: Inhibition of cell migration in human MDA-MB-231 cells assessed as decrease in cell migration incubated for 24 hrs by wound healing assay; assay type: functional, cell-based
BXPC-3 [21] = test: Effect on E-cadherin expression in TGF-beta induced human BXPC-3 cells at 0.1 to 0.5 uM incubated for 24 hrs by immunofluorescence assay; assay type: functional, cell-based; conditions: dose 0.1-0.5 µM
MDA-MB-231 [22] = test: Effect on E-cadherin expression in TGF-beta induced human MDA-MB-231 cells at 0.1 to 0.5 uM incubated for 24 hrs by immunofluorescence assay; assay type: functional, cell-based; conditions: dose 0.1-0.5 µM
MDA-MB-231 [23] = test: Effect on N-cadherin expression in TGF-beta induced human MDA-MB-231 cells at 0.1 to 0.5 uM incubated for 24 hrs by immunofluorescence assay; assay type: functional, cell-based; conditions: dose 0.1-0.5 µM
BXPC-3 [24] = test: Antitumor activity against human BXPC-3 cells xenografted in mouse assessed as tumor growth inhibition at 25 mg/kg, po administered for 14 days; assay type: functional; conditions: BXPC-3, 336 h, time 14 day, read-out: TGI
[25] = Toxicity in mouse implanted with human BXPC-3 cells assessed as body weight loss at 25 to 50 mg/kg, po measured on day 11; assay type: organism-based; conditions: in vivo, 264 h, dose 25-50 mg/kg, time 11 day
BXPC-3 [26] = test: Antitumor activity against human BXPC-3 cells xenografted in mouse assessed as reduction in Ki67 expression in tumor at 25 to 50 mg/kg, po administered for 14 days; assay type: functional, organism-based; conditions: dose 25-50 mg/kg, time 14.0 day
[27] = Toxicity in mouse implanted with human BXPC-3 cells assessed as liver damage at 50 mg/kg, po by H and E staining based analysis; assay type: organism-based; conditions: in vivo
[28] = Toxicity in mouse implanted with human BXPC-3 cells assessed as heart damage at 50 mg/kg, po by H and E staining based analysis; assay type: organism-based; conditions: in vivo
[29] = Toxicity in mouse implanted with human BXPC-3 cells assessed as spleen damage at 50 mg/kg, po by H and E staining based analysis; assay type: organism-based; conditions: in vivo
[30] = Toxicity in mouse implanted with human BXPC-3 cells assessed as kidney damage at 50 mg/kg, po by H and E staining based analysis; assay type: organism-based; conditions: in vivo
[31] = Cytotoxicity against human HaCaT cells assessed as inhibition of cell growth; assay type: toxicity, cell-based
[32] = Cytotoxicity against human HEK293 cells assessed as inhibition of cell growth; assay type: toxicity, cell-based
[33] = Cmax in Sprague-Dawley rat at 50 mg/kg, po; assay type: ADME, organism-based; conditions: in vivo
[34] = AUC (0 to last) in Sprague-Dawley rat at 50 mg/kg, po; assay type: ADME, organism-based; conditions: Sprague-Dawley, in vivo
[35] = Half life in Sprague-Dawley rat at 5 mg/kg, iv; assay type: ADME, organism-based; conditions: in vivo
[36] = Half life in Sprague-Dawley rat at 50 mg/kg, po; assay type: ADME, organism-based; conditions: in vivo
[37] = Clearance in Sprague-Dawley rat at 5 mg/kg, iv; assay type: ADME, organism-based; conditions: in vivo
[38] = Volume of distribution at steady state in Sprague-Dawley rat at 5 mg/kg, iv; assay type: ADME, organism-based; conditions: in vivo, read-out: Vdss
BXPC-3 [39] = test: cells; conditions: Homo sapiens, BXPC-3, 72 h
Description: Antiproliferative activity against human BXPC-3 cells assessed as cell viability incubated for 72 hrs by MTT assay

SW480 = test: cells; conditions: Homo sapiens, SW480, 72 h
Description: Antiproliferative activity against human SW480 cells assessed as cell viability incubated for 72 hrs by MTT assay

A549 = test: cells; conditions: Homo sapiens, A549, 72 h
Description: Antiproliferative activity against human A549 cells assessed as cell viability incubated for 72 hrs by MTT assay

[40] = tested on: Osimertinib-resistant NCI-H1975 cell; test: cells; conditions: Homo sapiens, 72 h

Chain of Signal transducer and activator of transcription 3 (Homo sapiens) (P40763 whole entry): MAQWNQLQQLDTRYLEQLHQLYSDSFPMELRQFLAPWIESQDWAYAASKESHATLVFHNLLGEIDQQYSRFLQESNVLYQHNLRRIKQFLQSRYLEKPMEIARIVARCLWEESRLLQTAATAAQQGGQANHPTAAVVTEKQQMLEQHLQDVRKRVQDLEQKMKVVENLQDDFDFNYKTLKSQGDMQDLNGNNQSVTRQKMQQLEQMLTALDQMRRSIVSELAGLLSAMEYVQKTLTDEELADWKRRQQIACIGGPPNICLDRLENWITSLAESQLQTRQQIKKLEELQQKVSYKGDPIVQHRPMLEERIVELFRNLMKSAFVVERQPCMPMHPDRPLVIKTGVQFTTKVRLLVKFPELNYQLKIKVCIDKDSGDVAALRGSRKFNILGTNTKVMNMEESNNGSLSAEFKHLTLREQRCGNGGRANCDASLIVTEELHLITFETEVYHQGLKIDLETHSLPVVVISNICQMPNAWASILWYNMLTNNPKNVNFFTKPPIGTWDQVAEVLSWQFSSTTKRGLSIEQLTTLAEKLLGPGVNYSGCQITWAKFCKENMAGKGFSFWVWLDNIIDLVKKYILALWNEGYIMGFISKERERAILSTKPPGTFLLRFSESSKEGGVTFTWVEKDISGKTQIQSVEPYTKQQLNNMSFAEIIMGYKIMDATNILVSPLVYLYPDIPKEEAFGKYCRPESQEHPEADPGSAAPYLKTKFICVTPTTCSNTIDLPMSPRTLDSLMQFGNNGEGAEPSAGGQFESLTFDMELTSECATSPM
Chain of Tyrosine-protein kinase ABL1 (Homo sapiens) (P00519 whole entry): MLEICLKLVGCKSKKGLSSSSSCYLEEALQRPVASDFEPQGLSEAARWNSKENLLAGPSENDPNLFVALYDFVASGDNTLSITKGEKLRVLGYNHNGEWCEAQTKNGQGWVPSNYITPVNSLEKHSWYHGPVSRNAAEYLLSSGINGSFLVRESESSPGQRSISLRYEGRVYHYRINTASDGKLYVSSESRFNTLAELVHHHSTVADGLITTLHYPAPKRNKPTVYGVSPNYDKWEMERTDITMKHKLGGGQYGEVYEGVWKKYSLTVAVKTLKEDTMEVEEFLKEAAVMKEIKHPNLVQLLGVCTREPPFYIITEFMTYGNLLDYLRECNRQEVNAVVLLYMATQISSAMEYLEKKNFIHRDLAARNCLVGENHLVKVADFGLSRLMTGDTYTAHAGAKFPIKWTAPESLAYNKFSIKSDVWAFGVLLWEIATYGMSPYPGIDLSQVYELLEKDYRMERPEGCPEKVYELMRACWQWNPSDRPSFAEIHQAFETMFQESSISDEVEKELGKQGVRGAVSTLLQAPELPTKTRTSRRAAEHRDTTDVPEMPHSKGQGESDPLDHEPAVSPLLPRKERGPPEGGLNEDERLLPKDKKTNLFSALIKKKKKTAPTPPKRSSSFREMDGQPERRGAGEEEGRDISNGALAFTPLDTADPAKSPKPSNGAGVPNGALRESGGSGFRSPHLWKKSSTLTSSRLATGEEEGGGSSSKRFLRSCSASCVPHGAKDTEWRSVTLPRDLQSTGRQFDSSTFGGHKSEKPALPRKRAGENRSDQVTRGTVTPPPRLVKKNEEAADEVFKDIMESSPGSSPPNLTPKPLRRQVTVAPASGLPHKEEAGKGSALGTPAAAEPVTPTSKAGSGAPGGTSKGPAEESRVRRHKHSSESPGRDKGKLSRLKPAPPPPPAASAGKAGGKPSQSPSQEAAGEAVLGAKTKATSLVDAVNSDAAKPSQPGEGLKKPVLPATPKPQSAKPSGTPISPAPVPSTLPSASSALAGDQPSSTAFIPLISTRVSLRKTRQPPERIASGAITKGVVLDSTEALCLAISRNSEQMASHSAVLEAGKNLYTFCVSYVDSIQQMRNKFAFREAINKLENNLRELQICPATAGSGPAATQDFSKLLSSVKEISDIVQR
Chain of Serine/threonine-protein kinase SIK2 (Homo sapiens) (Q9H0K1 whole entry, looked up): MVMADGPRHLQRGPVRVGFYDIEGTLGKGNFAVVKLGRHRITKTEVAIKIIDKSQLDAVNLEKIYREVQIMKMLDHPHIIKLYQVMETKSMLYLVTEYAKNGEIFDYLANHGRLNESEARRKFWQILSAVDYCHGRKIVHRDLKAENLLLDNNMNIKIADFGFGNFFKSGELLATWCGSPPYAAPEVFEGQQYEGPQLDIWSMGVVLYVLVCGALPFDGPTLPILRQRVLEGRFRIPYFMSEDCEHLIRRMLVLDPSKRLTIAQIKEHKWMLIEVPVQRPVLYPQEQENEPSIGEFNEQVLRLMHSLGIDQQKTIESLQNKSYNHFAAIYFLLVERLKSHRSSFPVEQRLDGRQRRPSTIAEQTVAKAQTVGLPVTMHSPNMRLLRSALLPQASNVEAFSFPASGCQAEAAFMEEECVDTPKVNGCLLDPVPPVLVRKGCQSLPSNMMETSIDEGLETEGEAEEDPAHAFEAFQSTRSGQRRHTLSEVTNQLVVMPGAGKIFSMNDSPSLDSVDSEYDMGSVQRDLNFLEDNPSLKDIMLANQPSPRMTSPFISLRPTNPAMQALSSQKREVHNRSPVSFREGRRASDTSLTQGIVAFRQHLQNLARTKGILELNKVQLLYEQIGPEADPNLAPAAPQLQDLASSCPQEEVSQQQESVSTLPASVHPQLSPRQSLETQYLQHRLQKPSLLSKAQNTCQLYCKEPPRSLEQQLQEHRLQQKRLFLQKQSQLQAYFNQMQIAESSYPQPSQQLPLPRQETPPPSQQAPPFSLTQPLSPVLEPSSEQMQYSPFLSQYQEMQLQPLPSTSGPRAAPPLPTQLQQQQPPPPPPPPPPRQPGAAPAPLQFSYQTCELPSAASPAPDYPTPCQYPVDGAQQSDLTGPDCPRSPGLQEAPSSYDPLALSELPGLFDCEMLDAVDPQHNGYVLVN

## CCN1CCN(C(C)C(=O)N(C)c2ccc(N/C(=C3\C(=O)Nc4cc(Cl)ccc43)c3ccccc3)cc2)CC1 (racemic)
[1]
  IC50 at 72 h: 1140 nM
[2]
  inhibition: Active
[3]
  inhibition: Active
Homo sapiens
  inhibition: Active
[4]
  IC50 at 72 h: 2310 nM
HUVEC [5]
  Activity: Active
HUVEC [6]
  Activity: Active
NIH3T3
  Activity: Active
Mitochondrial membrane [7]
  Activity: Active
Mitochondrial membrane [8]
  Activity: Active
MDA-MB-231 [9]
  inhibition: Active
BXPC-3 [10]
  inhibition: Active
MDA-MB-231 [11]
  Activity: Active
BXPC-3 [12]
  Activity: Active
[13]
  inhibition: Dose-dependent-effect
MDA-MB-231 [14]
  Activity: Active
Mitochondrial membrane [15]
  Activity: Active
Mitochondrial membrane [16]
  Activity: Active
MDA-MB-231 [17]
  Activity: Active
BXPC-3 [18]
  Activity: Active
MDA-MB-231 [19]
  Activity: Active
MDA-MB-231 [20]
  inhibition: Active
BXPC-3 [21]
  Activity: Active
MDA-MB-231 [22]
  Activity: Active
MDA-MB-231 [23]
  Activity: Active
BXPC-3 [24]
  inhibition in vivo at 25 mg/kg: 96.7%
[25]
  Activity: Non-toxic
BXPC-3 [26]
  AC30: Active
[27]
  Activity: Non-toxic
[28]
  Activity: Non-toxic
[29]
  Activity: Non-toxic
[30]
  Activity: Non-toxic
[31]
  IC50: > 10000 nM
[32]
  IC50: > 10000 nM
[33]
  Cmax: 88 ng/mL
[34]
  AUC(0-t): 1150 ng·h/mL
[35]
  half-life: 4.36 h
[36]
  half-life: 18.8 h
[37]
  clearance: 46.5 mL/min/kg
[38]
  Vd: 12.8 L/kg
BXPC-3 [39]
  IC50: 1010 nM
SW480
  IC50: 5910 nM
A549
  IC50: 250 nM
[40]
  IC50: 1120 nM
